Test results: PubChem BioAssay AID248 (DTP/NCI, 2004)
Several values for one entry are separate records, joined by “and”; a condition that tells them apart may be missing. Equal values may be shown once. Toxic doses and inconclusive results are not listed. No stated cut-off is given here; in the data, active means T/C of 150% or more; inactive means T/C below 125%.

System: L1210 leukemia ip in BDF1 mice, survival T/C
Assay: NCI In Vivo Anticancer Drug Screen. Data for tumor model L1210 Leukemia (intraperitoneal) in B6D2F1 (BDF1) mice
Details: endpoint: mean survival time, higher = longer survival
How it was run: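 Read-out is survival time, reported as the treated-group measurement over the vehicle-control measurement.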

[1] = dose: 100.0 mg/kg/injection, schedule: Q04DX003 (ip), vehicle: Klucel (hydroxypropylcellulose) (HPC)
[2] = dose: 400.0 mg/kg/injection, schedule: Q04DX003 (ip), vehicle: Klucel (hydroxypropylcellulose) (HPC)
[3] = dose: 100.0 mg/kg/injection, schedule: Q01DX001 (ip), vehicle: saline
[4] = dose: 200.0 mg/kg/injection, schedule: Q01DX001 (ip), vehicle: saline
[5] = dose: 400.0 mg/kg/injection, schedule: Q01DX001 (ip), vehicle: saline
[6] = dose: 100.0 mg/kg/injection, schedule: Q01DX009 (ip), vehicle: Klucel (hydroxypropylcellulose) (HPC)
[7] = dose: 200.0 mg/kg/injection, schedule: Q01DX009 (ip), vehicle: Klucel (hydroxypropylcellulose) (HPC)
[8] = dose: 400.0 mg/kg/injection, schedule: Q01DX009 (ip), vehicle: Klucel (hydroxypropylcellulose) (HPC)
[9] = dose: 100.0 mg/kg/injection, schedule: Q01DX009 (ip), vehicle: saline
[10] = dose: 100.0 mg/kg/injection, schedule: Q04DX003 (ip), vehicle: saline
[11] = dose: 100.0 mg/kg/injection, schedule: Q04DX003 (ip), vehicle: saline with Tween-80
[12] = dose: 200.0 mg/kg/injection, schedule: Q04DX003 (ip), vehicle: saline with Tween-80
[13] = dose: 400.0 mg/kg/injection, schedule: Q04DX003 (ip), vehicle: saline with Tween-80
[14] = dose: 25.0 mg/kg/injection, schedule: Q01DX009 (ip), vehicle: saline
[15] = dose: 50.0 mg/kg/injection, schedule: Q01DX009 (ip), vehicle: saline
[16] = dose: 100.0 mg/kg/injection, schedule: Q04DX002 (ip), vehicle: saline with Tween-80
[17] = dose: 200.0 mg/kg/injection, schedule: Q04DX002 (ip), vehicle: saline with Tween-80
[18] = dose: 400.0 mg/kg/injection, schedule: Q04DX002 (ip), vehicle: saline with Tween-80
[19] = dose: 100.0 mg/kg/injection, schedule: Q01DX001 (ip), vehicle: carboxymethylcellulose (CMC)
[20] = dose: 200.0 mg/kg/injection, schedule: Q01DX001 (ip), vehicle: carboxymethylcellulose (CMC)
[21] = dose: 400.0 mg/kg/injection, schedule: Q01DX001 (ip), vehicle: carboxymethylcellulose (CMC)
[22] = dose: 50.0 mg/kg/injection, schedule: Q01DX001 (ip), vehicle: saline

Measured: T/C

NC(C[Se][Se]CC(N)C(=O)O)C(=O)O (stereo not given)
inactive: dose: 1.56 mg/kg/injection, schedule: Q04DX002 (ip), vehicle: saline 103 % of control | dose: 3.12 mg/kg/injection, schedule: Q04DX002 (ip), vehicle: saline 103 % of control | dose: 6.25 mg/kg/injection, schedule: Q04DX002 (ip), vehicle: saline 103 % of control | dose: 12.5 mg/kg/injection, schedule: Q04DX002 (ip), vehicle: saline 88 % of control

S=c1ncn(C2CCCCC2)c(=S)[nH]1
inactive: [1] 95 % of control | [2] 102 % of control

CC(=O)OCC/C(=C/c1cc2ccccc2c2ccccc12)[N+](=O)[O-]
inactive: [3] 100 % of control | [4] 105 % of control | [5] 113 % of control

COc1ccc(CCn2ccc(C(=O)O)cc2=O)cc1OC
inactive: [6] 89 % of control | [1] 91 % of control | [7] 101 % of control | dose: 200.0 mg/kg/injection, schedule: Q04DX003 (ip), vehicle: Klucel (hydroxypropylcellulose) (HPC) 94 % of control | [8] 99 % of control | [2] 105 % of control

CC(=O)Nc1cccc(OC(=O)Nc2ccc([N+](=O)[O-])cc2Cl)c1
inactive: [9] 98 % of control | [10] 97 % of control | dose: 200.0 mg/kg/injection, schedule: Q01DX009 (ip), vehicle: saline 98 % of control | dose: 200.0 mg/kg/injection, schedule: Q04DX003 (ip), vehicle: saline 107 % of control | dose: 400.0 mg/kg/injection, schedule: Q01DX009 (ip), vehicle: saline 102 % of control | dose: 400.0 mg/kg/injection, schedule: Q04DX003 (ip), vehicle: saline 105 % of control

O=C(Nc1cc[n+](Cc2ccc(S(=O)(=O)F)cc2)cc1)c1ccccc1
inactive: [11] 96 % of control | [12] 98 % of control

Nc1ncnc2c1c(Br)cn2C1OC(CO)C(O)C1O (stereo not given)
inactive: dose: 5.0 mg/kg/injection, schedule: Q01DX001 (ip), vehicle: carboxymethylcellulose (CMC) 106 % of control

CCCCOCC1CO1 (stereo not given)
inactive: [11] 92 % of control | [12] 95 % of control | [13] 98 % of control

O=C(NCCCCc1ccccc1)c1ccc([N+](=O)[O-])s1
inactive: dose: 50.0 mg/kg/injection, schedule: Q01DX005 (ip), vehicle: water 94 % of control | dose: 100.0 mg/kg/injection, schedule: Q01DX005 (ip), vehicle: water 87 % of control | dose: 200.0 mg/kg/injection, schedule: Q01DX005 (ip), vehicle: water 94 % of control | dose: 400.0 mg/kg/injection, schedule: Q01DX005 (ip), vehicle: water 94 % of control

CCCCCCCCP(=O)(N1CC1C)N1CC1C (stereo not given)
inactive: [14] 98 % of control | [15] 104 % of control | [9] 98 % of control | [10] 91 % of control

CSc1ccc(NC(=O)Nc2cccc(Cl)c2C)cc1
inactive: dose: 50.0 mg/kg/injection, schedule: Q04DX003 (ip), vehicle: saline with Tween-80 94 % of control | dose: 100.0 mg/kg/injection, schedule: Q01DX009 (ip), vehicle: saline with Tween-80 96 % of control and 101 % of control | [16] 93 % of control and 104 % of control | [11] 92 % of control | dose: 200.0 mg/kg/injection, schedule: Q01DX009 (ip), vehicle: saline with Tween-80 100 % of control and 104 % of control | [17] 93 % of control and 97 % of control | [12] 87 % of control | dose: 400.0 mg/kg/injection, schedule: Q01DX009 (ip), vehicle: saline with Tween-80 104 % of control and 106 % of control | [18] 107 % of control and 88 % of control | [13] 88 % of control

COc1ccccc1-c1ccc([N+](=O)[O-])cc1[N+](=O)[O-]
inactive: [19] 100 % of control | [20] 105 % of control | [21] 102 % of control

NC(=O)CNC(=O)C(CSCc1ccccc1)NC(=O)OCc1ccccc1 (stereo not given)
inactive: dose: 25.0 mg/kg/injection, schedule: Q01DX009 (ip), vehicle: Klucel (hydroxypropylcellulose) (HPC) 89 % of control | dose: 50.0 mg/kg/injection, schedule: Q01DX009 (ip), vehicle: Klucel (hydroxypropylcellulose) (HPC) 93 % of control | [6] 94 % of control | [1] 90 % of control

CCNC(Cc1ccccc1)C1CCCO1 (stereo not given)
inactive: dose: 6.25 mg/kg/injection, schedule: Q01DX009 (ip), vehicle: saline 108 % of control | dose: 12.5 mg/kg/injection, schedule: Q01DX009 (ip), vehicle: saline 94 % of control | [14] 96 % of control | dose: 25.0 mg/kg/injection, schedule: Q04DX003 (ip), vehicle: saline 98 % of control | [15] 113 % of control | dose: 50.0 mg/kg/injection, schedule: Q04DX003 (ip), vehicle: saline 101 % of control | [9] 92 % of control | [10] 104 % of control

CCCCCCCCCCCCCCCC[As]1c2ccccc2Nc2ccccc21
inactive: [16] 86 % of control | [17] 89 % of control | [18] 86 % of control

Oc1ccc(O)c(Cl)c1
inactive: [22] 107 % of control | dose: 50.0 mg/kg/injection, schedule: Q04DX002 (ip), vehicle: saline 106 % of control | dose: 100.0 mg/kg/injection, schedule: Q01DX001 (ip), vehicle: Klucel (hydroxypropylcellulose) (HPC) 94 % of control | [3] 107 % of control | dose: 100.0 mg/kg/injection, schedule: Q04DX002 (ip), vehicle: saline 92 % of control | dose: 200.0 mg/kg/injection, schedule: Q01DX001 (ip), vehicle: Klucel (hydroxypropylcellulose) (HPC) 94 % of control

C(Sc1ccccc1)=C(Sc1ccccc1)Sc1ccccc1
inactive: dose: 6.25 mg/kg/injection, schedule: Q01DX009 (ip), vehicle: other 94 % of control | dose: 125.0 mg/kg/injection, schedule: Q01DX009 (ip), vehicle: other 105 % of control | dose: 250.0 mg/kg/injection, schedule: Q01DX009 (ip), vehicle: other 98 % of control

O=S(=O)(/C=C/c1ccccc1)c1ccc(F)cc1
inactive: dose: 100.0 mg/kg/injection, schedule: Q01DX001 (ip), vehicle: acetone 97 % of control | dose: 100.0 mg/kg/injection, schedule: Q01DX009 (ip), vehicle: acetone 88 % of control | dose: 200.0 mg/kg/injection, schedule: Q01DX001 (ip), vehicle: acetone 95 % of control | dose: 400.0 mg/kg/injection, schedule: Q01DX001 (ip), vehicle: acetone 95 % of control

CC(=O)c1ccc(C(=O)NCCCc2c(C)nc(N)[nH]c2=O)cc1
inactive: [11] 95 % of control | [12] 90 % of control | [13] 90 % of control

CCc1c(Cl)c(C)c(Cl)c(O)c1Cl
inactive: dose: 100.0 mg/kg/injection, schedule: Q04DX003 (ip), vehicle: other 102 % of control | dose: 200.0 mg/kg/injection, schedule: Q04DX003 (ip), vehicle: other 93 % of control

O=C1ON(c2ccccc2)C(c2ccccc2)N1c1ccc([N+](=O)[O-])cc1 (stereo not given)
inactive: [22] 106 % of control | [3] 114 % of control | [4] 100 % of control | [5] 112 % of control

CCCCCc1cc(O)c2c3c(c(=O)oc2c1)CCC(=O)C3
inactive: [19] 97 % of control | [20] 100 % of control | [21] 97 % of control

CCN(C(=O)c1ccccc1C)C(c1ccccc1)P(=O)(c1ccccc1)c1ccccc1 (stereo not given)
inactive: dose: 100.0 mg/kg/injection, schedule: Q01DX001 (ip), vehicle: saline with Tween-80 118 % of control | [16] 98 % of control and 100 % of control | [11] 109 % of control and 86 % of control | dose: 200.0 mg/kg/injection, schedule: Q01DX001 (ip), vehicle: saline with Tween-80 100 % of control | [17] 93 % of control and 102 % of control | [12] 94 % of control and 96 % of control | dose: 400.0 mg/kg/injection, schedule: Q01DX001 (ip), vehicle: saline with Tween-80 97 % of control | [18] 93 % of control and 90 % of control | [13] 93 % of control and 112 % of control

Cc1ccc(NC(=O)c2cc([N+](=O)[O-])cc([N+](=O)[O-])c2)cc1Cl
inactive: [6] 96 % of control | [7] 100 % of control | [8] 88 % of control
